US12083109B2, “Neurokinin antagonists and uses thereof” (California Institute of Technology, priority 2017, dated 2024)
Entries after “also recorded” stand apart in the source; their conditions may differ.

Target: T1, Nk3R (Mus musculus, UniProt P47937)
T1 sequence (P47937 1-452): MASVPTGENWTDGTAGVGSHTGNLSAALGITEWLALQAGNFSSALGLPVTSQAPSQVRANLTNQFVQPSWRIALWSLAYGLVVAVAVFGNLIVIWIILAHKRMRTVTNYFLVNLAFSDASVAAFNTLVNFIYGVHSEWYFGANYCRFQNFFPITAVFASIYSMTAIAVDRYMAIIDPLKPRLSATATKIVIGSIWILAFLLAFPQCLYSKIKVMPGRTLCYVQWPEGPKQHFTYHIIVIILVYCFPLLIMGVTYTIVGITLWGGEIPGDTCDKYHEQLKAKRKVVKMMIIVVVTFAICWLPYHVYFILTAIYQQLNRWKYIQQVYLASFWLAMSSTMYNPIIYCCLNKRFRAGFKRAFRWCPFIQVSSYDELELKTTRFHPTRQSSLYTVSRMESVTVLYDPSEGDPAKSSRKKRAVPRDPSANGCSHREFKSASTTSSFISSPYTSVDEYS
Assay: Shock reactivity (footshock) after tone test, osanetant
Assay type: in vivo
Parameters: from tissue; host or cells: Living mice (wild-type C57Bl6/N males, Charles River)
Method: The protocol for tone trace fear conditioning was performed as previously described (Cushman et al., 2014; incorporated by reference in its entirety) using fear conditioning boxes previously described in detail (Haubensak et al., 2010; Kunwar et al., 2015; incorporated by reference in their entirety). Briefly, mice were transported in squads of four on a white cart to a novel behavioral testing room containing 4 sound-attenuating fear-conditioning chambers (Med Associates). This “training context” was comprised of flat grid flooring (wired to a shock generator and scrambler for footshock delivery, Med Associates), houselights, and the presence of an internal fan for background noise. Chambers were sprayed with 70% Simple Green solution on the underlying chamber pan to generate a unique contextual scent and chambers were cleaned with 70% EtOH between squads. Trace fear conditioning consisted of a 3 minute baseline period followed by 3 tone-shock trials consisting of a 20 second tone conditional stimulus (CS; 75 dB, 2800 Hz), a 20 second trace interval and a 2 second footshock unconditional stimulus (US; 0.7 mA). The inter-trial interval (ITI) between trials was 60 seconds. Mice remained in the chambers an additional 60 seconds before being transported back to the vivarium. The following day, mice were transported in fresh cardboard boxes to a novel behavioral testing room consisting of 4 distinct fear-conditioning boxes to test for tone fear. The “test context” consisted of the houselights and fan turned off, uneven grid flooring, a 1% acetic acid scent and a black plastic insert used to generate a triangular roof. Testing was performed identical to training with the exception that shocks were omitted from test trials to allow for behavior assessment to the tone. A single shock was administered in the last minute of testing to assess activity burst responding to the shock. This allowed assessment of reactivity to the shock under our various manipulations performed during testing without disrupting fear acquisition by performing manipulations during training. All experimental manipulations and data shown herein were performed during the test phase of fear conditioning (training data not shown). Training and testing context were counterbalanced across mice. Freezing behavior during the baseline period as well as during each tone presentation (“during”) and trace interval (“post”) were assessed as previously described (Zelikowsky et al., 2014; incorporated by reference in its entirety) using automated near-infrared video tracking equipment and computer software (VideoFreeze, Med Associates). Shock reactivity (motion, arbitrary units) was measured during the 2 second shock US as well as the 3 seconds immediately following.
Mice were administered the Nk3R antagonist osanetant (Axon Medchem, Axon 1533) either systemically or intra-brain region. Osanctant was dissolved in saline with 0.1% Tween 20 (vehicle). […] For microinfusions, guide cannulas were removed from mice and replaced with injector cannulas (Plastics One), which protruded 0.5 mm from the tip of the guide cannula. Injectors were attached to 5 μl Hamilton syringes with PE tubing (Plastics One) and mounted on a microinfusion pump (Harvard Apparatus) for controlled infusion of osanetant (0.3 μl vehicle with 375 ng dose per site injected over 6 minutes). […]

- SIS-induced increased shock reactivity (SIS mice, osanetant 5 mg/kg i.p. 20 min before test): blocked
- reactivity to footshock (SIS-enhanced) (osanetant injection into CeA): reduced; also recorded: blocked
- responses to the footshock (osanetant microinfusion into DMH): had no effect
- shock reactivity (osanetant microinfusion into dBNSTa): no effect
SMILES: CC(=O)N(C)C1(c2ccccc2)CCN(CCC[C@]2(c3ccc(Cl)c(Cl)c3)CCCN(C(=O)c3ccccc3)C2)CC1 [osanetant, N-(1-{3-[(3R)-1-benzoyl-3-(3,4-dichlorophenyl)piperidin-3-yl]propyl}-4-phenylpiperidin-4-yl)-N-methylacetamide]
- SIS-induced increase in shock reactivity (osanetant daily during two-week isolation, tested off-drug): a trend to protection; also recorded: reduced, but not significantly
